US9975852B2, “Quinoline sulfonyl derivatives and uses thereof” (Health Sciences North Research Institute, priority 2013, dated 2018)
Read-outs that look alike come from different tables or passages of the source.

Tests used:
184B5 = experiment: SRB antiproliferative assay, 184B5 non-cancer breast cells; assay type: cell-based, human; conditions: read-out: GI50 184B5
Experimental: (§1) Antiproliferative effects were determined by a sulforhodamine B (SRB) based protocol. For a typical screening experiment, 5,000-10,000 cells were inoculated into 100 μl medium per well of a 96-well microtiter plate as described previously. […] Some of the sample wells were fixed with 25 μl of 50% trichloroacetic acid (TCA) as a control of the cell population for each cell line at the time of drug addition (Tz). An aliquot of the frozen stock was thawed and diluted to the desired final maximum test-concentration with complete medium. Two to ten-fold serial dilutions were made to provide a total of seven drug concentrations (and a control [C]). Following addition of drugs, the culture plate was incubated for additional 48 h. Cells were fixed in situ by slowly adding 25 μl of ice-cold 50% (w/v) TCA (final concentration, 10% TCA), and were then incubated for 60 min at 4° C. The supernatant was discarded, and the plate was washed five times with tap water, followed by air-dry. 50 μl of SRB solution at 0.4% (w/v) in 1% acetic acid was added to each well, and the plate was incubated for >30 min at room temperature. Unbound SRB was removed by five washes with tap water, followed by air-drying. […] The relative growth rate (%) was calculated for each of the compound concentrations according to the following formula: (Ti−Tz)/(C−Tz)×100 In the formula, time zero (Tz), control growth (C), and OD for different concentration of tested compounds (Ti). The GI50 for each compound was obtained from a non-linear Sigmoidal dose-response (variable slope) curve which is fitted by GraphPad Prism™ v.4.03 software. Values were calculated for each of these parameters if the level of activity was reached. However, if the effect was not reached or was exceeded, the value for that parameter was expressed as greater or less than the maximum or minimum concentration tested. Flow Cytometry

MCF10A = experiment: SRB antiproliferative assay, MCF10A non-cancer breast cells; assay type: cell-based, human; conditions: 48 h
Experimental: as §1

MDA-MB231 = experiment: SRB antiproliferative assay, MDA-MB231; assay type: cell-based, human
Experimental: as §1

MDA-MB468 = experiment: SRB antiproliferative assay, MDA-MB468; assay type: cell-based, human
Experimental: as §1

MCF7 = experiment: SRB antiproliferative assay, MCF7; assay type: cell-based, human
Experimental: as §1

[1] = tested on: MDA-MB231 human metastatic breast cancer cells; experiment: Xenograft antitumor activity, ATH490 mice engrafted with MDA-MB231; assay type: in vivo; set-up: Tumor size D7 / Tumor size D15 / Tumor size D18 / Tumor size D22: unit not given here
Experimental: Five-week-old female CD-1 and ATH490 (strain code 490) athymic nude mice were purchased from Charles River (Quebec, Canada). The MDA-MB231 human metastatic breast cancer cells were obtained from the American Tissue Culture Collection (ATCC, Manassas, Va., USA). Cells were maintained under humidified condition at 37° C. and 5% CO2 in DMEM high glucose medium (ATCC) supplemented with 10% fetal bovine serum and antibiotics. All animal experiments, including animal handling, care, treatment and endpoint determination, were reviewed and approved by the Laurentian University Animal Care Committee (ACC) and carried out at Laurentian University Animal Care facility (Sudbury, Ontario, Canada)
To determine anti-tumor activity of VR-23 in an animal model, a xenograft model of human breast cancer cells in athymic nude mice was established. Exponentially growing MDA-MB231 cells were harvested and counted for inoculation into mice. Each mouse was subcutaneously injected at the flank with 10×10^6 cells in 0.2 ml ice cold 1×PBS. When tumor size reached 4-5 mm in diameter (n=4-5 per group), mice were randomly assigned into five (or more) groups.

[2] = ATH490 mice
Experimental: (§3) Alanine Transaminase (“ALT”, SUP6001-c)/Aspartate Transaminase (“AST”, SUP6002-c) color endpoint assay kits were purchased from ID Labs Biotechnology (London, Ontario, Canada). Elevation of ALT and AST levels in serum samples is used as an indicator of liver damage/injury.
(§4) Animals were monitored for food and water consumption every day, and their body weights and tumor volumes were measured twice per week. Tumor volumes were measured with a digital caliper and were determined by using the following formula: ½ length×width^2. Blood samples were collected via cardiac puncture and processed further for ALT and AST measurements. The animals were then immediately euthanized by carbon dioxide.
(§5) Changes in body weight and the amount and ratio of alanine transaminase (ALT)/aspartate transaminase (AST) were used to measure toxic effects.
Ratio of <2 is considered normal.

MCF7 cells = experiment: Clonogenic assay using MCF7 cells; assay type: cell-based, human
Experimental: (§2) The clonogenic assay was carried out as described in Santi and Lee (2011).^11
Antiproliferative activity of VR-23 was evaluated on a variety of different cell lines, alone or in combination with Bortezomib, by way of SRBSRB or clonogenic assays.

[3] = Organ weight and histology (liver, spleen, kidney, lung) of ATH490 mice
Experimental: All values are presented as mean±S.E.M. Analyses were performed using GraphPad Prism software (GraphPad Software). Comparison between the groups was made by p value determination using one-way ANOVA. A p value of <0.05 was considered to be statistically significant. […] Each organ weight (%) is normalized with total body weight (BW).
The H&E stained slides were taken with a 20× objective using a Zeiss EPI-fluorescent microscope (bright field). […] At least 10 fields for each slide (one slide per mouse, and 3 mice per group) were examined.
Images were taken with a 10× objective using a Zeiss EPI-fluorescent microscope. […] Drug administration was carried out as described in Table IX and in the Materials and Methods section herein with respect to Animal Studies.
The images of the H&E stained renal tissues were taken with a Zeiss EPI-fluorescent (bright field) microscope using a 10× objective.

U87MG brain cancer cells = experiment: Clonogenic assay, U87MG brain cancer cells; assay type: cell-based; conditions: Temozolomide
Experimental: as §2

Jurkat lymphoma cells = experiment: Flow cytometry, apoptosis of Jurkat lymphoma cells; assay type: cell-based; conditions: 6 nM Bortezomib, 48 hours
Experimental: Asynchronously growing Jurkat lymphoma cells were incubated for 48 hours in the absence (sham control) or presence of Bortezomib alone or in combination with VR-23.

[4] = Serum ALT liver toxicity, CD-1 mice; conditions: Chloroquine (Reference)
Experimental: as §3, §4, §5
Ratio of <2 is considered normal.

MCF10A non-cancer cells = conditions: 50 μM CQ
[5] = Homo sapiens, MCF7, SRB, 48 h, read-out: GI50 MCF7

Row | SMILES | GI50 (MDA-MB231; Homo sapiens, MDA-MB-231, 48 h) [µM] | GI50 (MDA-MB468; Homo sapiens, MDA-MB-468, 48 h) [µM] | GI50 (MCF7; [5]) [µM] | melting point [°C] | GI50 (184B5; Homo sapiens, 184B5, SRB, 48 h) [µM] | GI50 (MCF10A; Homo sapiens, MCF-10A) [µM] | also measured
1 | O=[N+]([O-])c1cccc(S(=O)(=O)N2CCN(c3ccnc4cc(Cl)ccc34)CC2)c1 [VR-25 (40), 7-Chloro-4-(4-(3-nitrophenylsulfonyl)piperazin-1-yl)quinoline] | 20.4 ± 1.15 | 9.21 ± 0.65 | 8.62 ± 0.38 |  | 15.8 ± 0.88 | 31.1 ± 1.01 | 
2 | CC(=O)O[C@H]1C(=O)[C@@]2(C)[C@H]([C@H](OC(=O)c3ccccc3)[C@]3(O)C[C@H](OC(=O)[C@H](O)[C@@H](NC(=O)c4ccccc4)c4ccccc4)C(C)=C1C3(C)C)[C@]1(OC(C)=O)CO[C@@H]1C[C@@H]2O [Paclitaxel] |  |  |  |  |  |  | Tumor size D7 ([1]; day 7 post-treatment, dosing as in Table IX B): 47.63 ± 8.67; Tumor size D15 ([1]; day 15 post-treatment, dosing as in Table IX B): 23.25 ± 11.63; Tumor size D18 ([1]; day 18 post-treatment, dosing as in Table IX B): 25.20 ± 13.69; Tumor size D22 ([1]; day 22 post-treatment, dosing as in Table IX B): 16.59 ± 2.66; Reduction of tumor burden ([1]; paclitaxel 20 mg/kg/week): 18.4 fold; ALT [2]: 35.91 ± 4.26 U/L; AST [2]: 84.4 ± 29.21 U/L; Survival (% of the control) (MCF7 cells; 1 nM of Paclitaxel alone): 35.8%; Survival (% of the control) (MCF7 cells; 1 nM of Paclitaxel alone, listed as paclitaxel): 35.8%; Survival (% of the control) (MCF7 cells; 2 nM of Paclitaxel alone): 9.5%; Microscopic Changes (liver) ([3]; ATH490 mice, VR-23, 30 mg/week, Paclitaxel, 20 mg/week): High rate of mitotic cells in liver; Spleen histology (H&E) ([3]; VR-23 30 mg/kg, paclitaxel 20 mg/kg): side effects including germinal center (GC) expansion; Kidney histology (H&E), nephrotoxicity ([3]; VR-23 30 mg/kg, paclitaxel 20 mg/kg, four weeks): high cellularity, endocapillary proliferative glomerulonephritis (enlarged glomeruli), and collapsed Bowman space; Cases with liver cells with densely stained nucleic acids ([3]; paclitaxel 20 mg/kg): approximately 15%; Weight of spleen ([3]; paclitaxel-treated, 29 days post-treatment): weight of spleen was higher
3 | N.N.[Cl][Pt][Cl] [Cisplatin, reference compound] |  |  |  |  |  |  | GI50 (184B5; SRB, 48 h): 25.5 ± 0.35 µM; GI50 (MCF7; SRB, 48 h, read-out: GI50 MCF7): 25.8 ± 0.38 µM; GI50 (MCF10A): 51.5 ± 0.65 µM; GI50 (MDA-MB231; 48 h): 23.65 ± 0.23 µM; GI50 (MDA-MB468; 48 h): 31 ± 0.45 µM
4 | Cc1ccc(S(=O)(=O)N2CCN(c3ccnc4cc(Cl)ccc34)CC2)cc1 [VR-22 (38), 7-Chloro-4-(4-tosylpiperazin-1-yl)quinoline] | 6.16 ± 0.51 | 5.77 ± 0.41 | 5.25 ± 0.45 |  | 9.56 ± 0.53 | 12.6 ± 0.66 | 
5 | O=S(=O)(NCCCNc1ccnc2cc(Cl)ccc12)c1ccc(-c2ccccc2)cc1 [Compound 20, Biphenyl-4-sulfonic acid [3-(7-chloro-quinolin-4-ylamino)-propyl]-amide] | 4.63 ± 0.42 | 4.46 ± 0.37 | 2.47 ± 0.23 | 116 to 118 | 2.41 ± 0.09 |  | 
6 | Cn1nnc2c(C(N)=O)ncn2c1=O [Temozolomide] |  |  |  |  |  |  | # Colonies (Experiment #1) (U87MG brain cancer cells; 1 μM): 64; # Colonies (Experiment #2) (U87MG brain cancer cells; 1 μM): 94; # Colonies (Experiment #1) (U87MG brain cancer cells; 5 μM): 39; # Colonies (Experiment #2) (U87MG brain cancer cells; 5 μM): 50; # Colonies (Experiment #1) (U87MG brain cancer cells; 10 μM): 4; # Colonies (Experiment #2) (U87MG brain cancer cells; 10 μM): 5; # Colonies (Experiment #1) (U87MG brain cancer cells; 20 μM): 2; # Colonies (Experiment #2) (U87MG brain cancer cells; 20 μM): 1; # Colonies (Experiment #1) (U87MG brain cancer cells; 50 μM): 2; # Colonies (Experiment #2) (U87MG brain cancer cells; 50 μM): 1
7 | O=[N+]([O-])c1ccc(S(=O)(=O)N2CCN(c3ccnc4cc(C(F)(F)F)ccc34)CC2)c([N+](=O)[O-])c1 [Compound 12, 4-[4-(2,4-Dinitro-benzenesulfonyl)-piperazin-1-yl]-7-trifluoromethyl-quinoline] | 24.3 ± 0.63 | 19.2 ± 0.61 | 10.8 ± 0.12 | 178 to 180 |  |  | GI50 (184B5; Homo sapiens, 184B5, 48 h): 37.78 ± 0.35 µM
8 | CC(C)C[C@H](NC(=O)[C@H](Cc1ccccc1)NC(=O)c1cnccn1)B(O)O [Bortezomib] |  |  |  |  |  |  | Cell killing by apoptosis (Jurkat lymphoma cells): neither 6 nM of Bortezomib (FIG. 4, ii) nor 0.75 μM of VR-23 (FIG. 4, iv) induced substantial cell killing by apoptosis; Average colony number (MCF7 cells; Bortezomib at 2 nM, series with non-treated control 34): 15; Average colony number (MCF7 cells; Bortezomib at 4 nM, series with non-treated control 34): 12; Average colony number (MCF7 cells; Bortezomib at 4 nM, series with non-treated control 36): 11; Average colony number (MCF7 cells; Bortezomib at 6 nM, series with non-treated control 36): 6
9 | O=S(=O)(c1ccc(Cl)cc1Cl)N1CCN(c2ccnc3cc(C(F)(F)F)ccc23)CC1 [Compound 10, 4-[4-(2,4-Dichloro-benzenesulfonyl)-piperazin-1-yl]-7-trifluoromethyl-quinoline] | 20.3 ± 0.53 | 18.6 ± 0.55 | 16.7 ± 0.19 | 137 to 139 | 20.4 ± 0.23 |  | 

More lines, main results first:

Row | GI50 (MDA-MB231; Homo sapiens, MDA-MB-231, 48 h) [µM] | GI50 (MDA-MB468; Homo sapiens, MDA-MB-468, 48 h) [µM] | GI50 (MCF7; [5]) [µM] | melting point [°C] | SMILES | GI50 (184B5; Homo sapiens, 184B5, SRB, 48 h) [µM] | GI50 (MCF10A; Homo sapiens, MCF-10A) [µM] | also measured
10 | 12.7 ± 1.01 | 4.63 ± 0.35 |  |  | CN(C)c1cccc2c(S(=O)(=O)NCCCNc3ccnc4cc(Cl)ccc34)cccc12 [VR-65 (41), 5-Dimethylamino-naphthalene-1-sulfonic acid [3-(7-chloro-quinolin-4-ylamino)-propyl]-amide] | 1.67 ± 0.08 | 2.56 ± 0.03 | 
11 | 32.2 ± 0.68 | 18.6 ± 0.57 | 9.44 ± 0.25 | 199 to 201 | O=[N+]([O-])c1cccc(S(=O)(=O)N2CCN(c3ccnc4cc(C(F)(F)F)ccc34)CC2)c1 [Compound 6, 4-[4-(3-Nitro-benzenesulfonyl)-piperazin-1-yl]-7-trifluoromethyl-quinoline] | 17.7 ± 0.21 |  | 
12 | 11.8 ± 0.91 | 8.34 ± 0.73 | 4.31 ± 0.32 |  | O=S(=O)(c1ccc(Cl)cc1)N1CCN(c2ccnc3cc(Cl)ccc23)CC1 [VR-24 (39), 7-Chloro-4-(4-(4-chlorophenylsulfonyl)piperazin-1-yl)quinoline] | 6.36 ± 0.34 | 9.7 ± 0.81 | 
13 | 22.5 ± 1.44 | 28.6 ± 1.25 |  |  | CCN(CC)CCCC(C)Nc1ccnc2cc(Cl)ccc12 (stereo not drawn) [Chloroquine, reference compound] | 76.1 ± 1.13 | 81.3 ± 1.45 | GI50 (MCF7; Homo sapiens, MCF7, 48 h, read-out: GI50 MCF7): 38.4 ± 1.2 µM; GI50 (MCF7; Homo sapiens, MCF7, read-out: GI50 value of CQ on MCF7): ~38 µM; ALT [4]: 6.03 ± 4.40 IU/L blood; Apoptosis in MCF10A (MCF10A non-cancer cells): some cells underwent apoptosis
14 | 55.9 ± 1.56 | 30.4 ± 0.99 | 25.3 ± 1.23 | 171 to 173 | CS(=O)(=O)NCCCNc1ccnc2cc(C(F)(F)F)ccc12 [Compound 23, N-[3-(7-Trifluoromethyl-quinolin-4-ylamino)-propyl]-methanesulfonamide] | 59.5 ± 1.56 |  | 
